Like-named read-outs stand apart in the source and are kept apart here.
Key:
Design in all cases: species or system AML cell lines (8); Primary HTS, single concentration about 10 uM, Cell Titer Glo viability; log10 luminescence, per cent inhibition relative to cycloheximide control
Settings in all cases: 72 h, relative to cycloheximide control, log10 luminescence, inhibitor
[1] = system: CMK
[2] = system: MV4-11
[3] = system: CMS
[4] = system: U937
[5] = system: M07e
[6] = system: CHRF288-11
[7] = system: MOLM-13
[8] = system: ML-2

SMILES: CC[C@H]1OC(=O)[C@H](C)[C@@H](O[C@H]2C[C@@](C)(OC)[C@@H](O)[C@H](C)O2)[C@H](C)[C@@H](O[C@@H]2O[C@H](C)C[C@H](N(C)C)[C@H]2O)[C@](C)(OC)C[C@@H](C)C(=O)[C@H](C)[C@@H](O)[C@]1(C)O [SJ000286061-4, CLARITHROMYCIN]
- CMK %inh ([1]; CMK %inh, 10 µM): -0.3654%
- MV4-11 %inh ([2]; MV4-11 %inh, 10 µM): 1.784%
- CMS %inh ([3]; CMS %inh, 10 µM): 4.035%
- U937 %inh ([4]; U937 %inh, 10 µM): 1.816%
- M07e %inh ([5]; M07e %inh, 10 µM): 4.017%
- CHRF288-11 %inh ([6]; CHRF288-11 %inh, 10 µM): 4.27%
- MOLM-13 %inh ([7]; MOLM-13 %inh, 10 µM): 0.6227%
- ML-2 %inh ([8]; ML-2 %inh, 10 µM): -1.428%

SMILES: COc1c(N2CCNC(C)C2)c(F)cc2c(=O)c(C(=O)O)cn(C3CC3)c12 (centres unmarked) [SJ000286066-3, GATIFLOXACIN]
- CMK %inh [1]: 1.598%
- MV4-11 %inh [2]: -0.7209%
- CMS %inh [3]: -1.278%
- U937 %inh [4]: 2.127%
- M07e %inh [5]: 0.9683%
- CHRF288-11 %inh [6]: 7.116%
- MOLM-13 %inh [7]: 8.563%
- ML-2 %inh [8]: 1.743%

SMILES: CC(=O)OCC(CCn1cnc2cnc(N)nc21)COC(C)=O [SJ000286077-3, FAMCICLOVIR]
- CMK %inh [1]: 3.857%
- MV4-11 %inh [2]: 1.495%
- CMS %inh [3]: 3.04%
- U937 %inh [4]: 2.68%
- M07e %inh [5]: -1.801%
- CHRF288-11 %inh [6]: -0.6265%
- MOLM-13 %inh [7]: 3.343%
- ML-2 %inh [8]: -0.1732%

SMILES: O=C1[C@H](CC[C@H](O)c2ccc(F)cc2)[C@@H](c2ccc(O)cc2)N1c1ccc(F)cc1 [SJ000286078-3, EZETIMIBE]
- CMK %inh [1]: 3.95%
- MV4-11 %inh [2]: 0.198%
- CMS %inh [3]: 1.706%
- U937 %inh [4]: 5.441%
- M07e %inh [5]: 4.29%
- CHRF288-11 %inh [6]: 8.692%
- MOLM-13 %inh [7]: 5.807%
- ML-2 %inh [8]: 2.139%

SMILES: C=CC1=C(C(=O)O)N2C(=O)[C@@H](NC(=O)/C(=N\O)c3csc(N)n3)[C@H]2SC1 [SJ000286082-3]
- CMK %inh [1]: 1.925%
- MV4-11 %inh [2]: 0.05121%
- CMS %inh [3]: 3.32%
- U937 %inh [4]: 3.234%
- M07e %inh [5]: 3.525%
- CHRF288-11 %inh [6]: 4.774%
- MOLM-13 %inh [7]: 11.38%
- ML-2 %inh [8]: 2.212%

SMILES: CCCCC(=O)N(Cc1ccc(-c2ccccc2-c2nnn[nH]2)cc1)[C@H](C(=O)O)C(C)C [SJ000286083-3]
- CMK %inh ([1]; CMK %inh, 10 µM): -2.006%
- MV4-11 %inh ([2]; MV4-11 %inh, 10 µM): -0.8771%
- CMS %inh ([3]; CMS %inh, 10 µM): 1.896%
- U937 %inh ([4]; U937 %inh, 10 µM): 1.517%
- M07e %inh ([5]; M07e %inh, 10 µM): -3.413%
- CHRF288-11 %inh ([6]; CHRF288-11 %inh, 10 µM): 2.31%
- MOLM-13 %inh ([7]; MOLM-13 %inh, 10 µM): -0.1457%
- ML-2 %inh ([8]; ML-2 %inh, 10 µM): 1.672%

SMILES: CCCCC(=O)N(Cc1ccc(-c2ccccc2-c2nnn[nH]2)cc1)[C@H](C(=O)O)C(C)C [SJ000286083-4]
- CMK %inh ([1]; CMK %inh, 10 µM): -2.819%
- MV4-11 %inh ([2]; MV4-11 %inh, 10 µM): -5.399%
- CMS %inh ([3]; CMS %inh, 10 µM): -1.191%
- U937 %inh ([4]; U937 %inh, 10 µM): -0.1303%
- M07e %inh ([5]; M07e %inh, 10 µM): -1.607%
- CHRF288-11 %inh ([6]; CHRF288-11 %inh, 10 µM): 3.369%
- MOLM-13 %inh ([7]; MOLM-13 %inh, 10 µM): -2.877%
- ML-2 %inh ([8]; ML-2 %inh, 10 µM): -0.2697%

SMILES: Cc1cccc(Nc2ccncc2S(=O)(=O)NC(=O)NC(C)C)c1 [SJ000286085-4, TORSEMIDE]
- CMK %inh ([1]; CMK %inh, 10 µM): 4.671%
- MV4-11 %inh ([2]; MV4-11 %inh, 10 µM): 3.27%
- CMS %inh ([3]; CMS %inh, 10 µM): -0.4672%
- U937 %inh ([4]; U937 %inh, 10 µM): 0.4443%
- M07e %inh ([5]; M07e %inh, 10 µM): 11.12%
- CHRF288-11 %inh ([6]; CHRF288-11 %inh, 10 µM): 121.5%
- MOLM-13 %inh ([7]; MOLM-13 %inh, 10 µM): 0.9883%
- ML-2 %inh ([8]; ML-2 %inh, 10 µM): -0.2644%

SMILES: Cc1cccc(Nc2ccncc2S(=O)(=O)NC(=O)NC(C)C)c1 [SJ000286085-5, TORSEMIDE]
- CMK %inh ([1]; CMK %inh, 10 µM): -7.265%
- MV4-11 %inh ([2]; MV4-11 %inh, 10 µM): 0.9899%
- CMS %inh ([3]; CMS %inh, 10 µM): -2.109%
- U937 %inh ([4]; U937 %inh, 10 µM): -1.512%
- M07e %inh ([5]; M07e %inh, 10 µM): 1.697%
- CHRF288-11 %inh ([6]; CHRF288-11 %inh, 10 µM): 0.4254%
- MOLM-13 %inh ([7]; MOLM-13 %inh, 10 µM): -1.664%
- ML-2 %inh ([8]; ML-2 %inh, 10 µM): 1.771%

SMILES: C[C@]12CCC(=O)C=C1C=C[C@@H]1[C@@H]2CC[C@@]2(C)[C@H]1CC[C@@]21CCC(=O)O1 [SJ000286091-3, CANRENONE]
- CMK %inh [1]: 0.4745%
- MV4-11 %inh [2]: 4.82%
- CMS %inh [3]: 0.603%
- U937 %inh [4]: 3.254%
- M07e %inh [5]: 2.621%
- CHRF288-11 %inh [6]: 2.724%
- MOLM-13 %inh [7]: 5.53%
- ML-2 %inh [8]: 3.227%

— article PMC6522510 (Nature Communications, 2019)
